row,Compound,melting point [°C]
1,CC(=O)NCC1CC(c2ccc(Br)cc2)=NO1 (configuration not stated),198 to 199
2,COc1ccc(-c2nc3ccc(OC)cc3s2)cc1,162 to 164
3,CCO[C@@H]1C[C@@H](C(=O)NC)N(S(=O)(=O)c2ccc(Cl)c(CBr)c2Cl)C1,122
4,O=C(Nc1n[nH]c(=S)s1)NC(CC1CCCCC1)C(=O)NCCc1ccccc1 (configuration not stated),199 to 200
5,Cc1ccc(C(=O)CC2CCCN(C)C2)cc1 (configuration not stated),70 to 74
6,COc1ccc(C(=O)N(C(=O)c2ccc(OC)cc2)c2nc3ccc(N4CCN(C)CC4)cc3c(NCc3ccccc3)c2C#N)cc1,176
7,Cc1nc(NC(=N)N)sc1C=O,176 to 178
8,CS(=O)(=O)NCCCCn1c(CCO)nc2c(N)nc3ccccc3c21,206 to 208
9,COc1ccc2c(c1)-c1c(nn(-c3ccccn3)c1O)CC2,116 to 117
10,COC(=O)Cc1nc(N)cc(OC)n1,91 to 94
11,COc1cc(NC(C)=O)c(Cl)cc1C(=O)NN1CCN(C)CC1,198 to 200
12,OC(Cc1ccccc1)Cc1ccccc1,107 to 109
13,CCCCC(=O)OCC=C(C)CCC=C(C)CCC=C(C)CCC=C(C)CCC=C(C)CCC=C(C)CCC=C(C)CCC=C(C)CCC=C(C)C,34 to 35
14,Cc1cc(S(=O)(=O)N2CC(C)CC(C)C2)ccc1[N+](=O)[O-] (configuration not stated),133 to 138
15,CCCc1ccc2nc(COc3ccc(F)c(C(N)=O)c3F)sc2c1,173 to 175
16,CC(C)(Oc1ccc(F)cc1Cl)C(=O)O,63 to 65
17,O=C(c1cc(C(F)(F)F)cc(C(F)(F)F)c1)N1CCC2(CC1)C(=O)N(c1cc(Cl)ncn1)CN2c1ccccc1,212 to 214
18,COC(=O)N1C(=O)C=CC1=O,61 to 63
19,COc1ccc(C(=O)Nc2ccccc2)cc1NCc1cccc(O)c1,168 to 170
20,N#Cc1ccc2[nH]cc(C3CCC(=O)CC3)c2c1,162 to 164
21,COc1cccc(-c2cn3c(ccc4ccccc43)n2)c1,129 to 131
22,C=CCn1ccc2cc(NC(=O)c3nc4ccc(Cl)cc4n3Cc3ccccc3)ccc21,154 to 155
23,CCOC(=O)CCCn1c(Nc2cnc(N(C)C)cc2C)nc2c(Cl)ccc(C(CC)CC)c21,158 to 159
24,Cn1c(=O)cc(-c2cccc(Cl)c2)c2cc(C(=O)c3ccc(Cl)cc3)ccc21,155
25,CNc1c(-c2cc(Cl)ccc2O)c2cc(C(F)(F)F)ccc2[nH]c1=O,238 to 240
26,O=C(O)C(=C1SCCCS1)c1cccc(C(F)(F)F)c1,165 to 166

row,Compound,melting point [°C]
1,Cc1cn(C(C)(C)C(=O)N(C)C)nc1-c1ccc(Cl)cc1,122 to 124
2,COc1cc(C)cc(NC(=O)c2nnnn2Cc2ccccc2)c1OCc1ccccc1,181 to 183
3,COc1ccc2c(c1)C(c1ccc(O)cc1)c1c-2ccc2cc(OC)ccc12 (configuration not stated),196 to 199
4,[O-][N+]1=C(c2ccccc2F)c2cc(Cl)ccc2-n2cnc(N3CCCC3)c2C1,190 to 192
5,Cc1cc(Cl)nc(Br)c1,76
6,Fc1ccc(Nc2ncnc3cnc(NCC4CCNCC4)nc23)cc1Cl,204 to 206
7,CN(C)c1cc2c(C(F)(F)F)cccc2s1,70 to 73
8,N#CSCc1ccc(C(=O)c2ccc(Cl)cc2)cc1,129 to 131
9,O=C(O)CCCCCCCn1c(-c2ccccc2)nc(-c2ccccc2Cl)c1-c1ccccc1Cl,198
10,COc1cc(COc2nn(-c3ccccc3)cc2/C=C/c2nc(C)cs2)ccc1OCc1nc(-c2ccco2)oc1C,130 to 131
11,CCc1c(C#N)c(-c2ccc(C#N)cc2)c(C)n1Cc1cnc(Cl)c(CO)c1,126 to 127
12,NC(=O)c1cnn2c1NCC=C2c1cccc(F)c1,122 to 125
13,Oc1ccc(C2CCCN2CCN2CCOCC2)cc1 (configuration not stated),107 to 108
14,Cc1cc(C)c2c(c1C)OC(C)(CC(=O)O)C2 (configuration not stated),139 to 140
15,Nc1nc(-c2ccco2)c(C(=O)C2CCC(=O)CC2)s1,232 to 235
16,N#CC(N)=C(C#N)N=Cc1cnn(-c2c(Cl)cc(C(F)(F)F)cc2Cl)n1,234 to 235
17,CCc1nc2c(nc1O)CCCC2,152 to 153
18,N#Cc1cnc2cc(/C=C/CCCN3CCOCC3)ccc2c1Nc1ccc(Cl)cc1Cl,142 to 144
19,COC1(OC)CCN(c2cc3c(cc2F)c(=O)c(C(=O)O)cn3-c2ccc(F)cc2F)C1,228 to 230
20,CC(=O)OCCCc1cccc(-c2nc(=O)c3ccccc3s2)n1,141 to 142
21,COC(=O)CCn1nnnc1C1N2C(=O)C(NC(c3ccccc3)(c3ccccc3)c3ccccc3)C2SC1(C)C (configuration not stated),94 to 98
22,N#CSc1ccc(NC(=O)OCc2cccnc2)cc1,188 to 191
23,COc1nc(C)c(C)nc1N(C)C(=O)N1CCN(c2cc(C)cc(C)c2)CC1,94 to 96
24,CC12CCC3c4ccc(O)cc4CCC3C1CCC2OC(=O)c1cccnc1 (configuration not stated),221 to 222
25,Cn1c(=O)cn[nH]c1=O,173
26,C#CCn1c(I)cc(C(O)C(C)(C)C)c(C)c1=O (configuration not stated),105 to 106

row,Compound,melting point [°C]
1,CC(=O)Oc1nc2c(N)ncnc2n1Cc1ccccc1,189 to 191
2,CC(C)(C)OC(=O)NCc1ccc(-c2ccc(O)cc2)cc1,147 to 149
3,COc1ccc(COC(=O)NC(C(=O)O)c2cccs2)cc1 (configuration not stated),153 to 156
4,O=[N+]([O-])c1ccc(Cl)c2cc[nH]c12,166 to 167
5,Cc1cc(NC(=O)c2[nH]c(C)c(-c3nc4ccc(C(=O)c5ccccc5)cc4[nH]3)c2C)no1,271 to 273
6,O=C(O)C(CBr)(c1ccccc1)c1ccccc1,201 to 202
7,OC(c1ccccc1)(c1cccc(C(F)(F)F)c1)N1CCCCC1 (configuration not stated),97 to 100
8,O=c1c2ccccc2nc(-c2ccccc2)n1CCN1CCC(c2c[nH]c3ccccc23)CC1,191
9,CCCCCCCCCCCCCCCC(=O)Nc1ccc(C(=O)O)cc1C,194 to 196
10,O=c1cc(-c2ccccc2)oc2c(CN3CCC(O)CC3)c(O)c(O)c(O)c12,221
11,COc1ccc(OC)c(CNc2ccc3nc[nH]c(=O)c3c2)c1,203 to 205
12,CCCCCCCC(=O)N[C@@H](Cc1ccc(O)cc1)C(=O)OC,76
13,Cc1ccc([C@@H](O)C(F)(F)F)cc1,44.2
14,CC1(C2C(=O)N(CC(F)(F)F)c3ccccc32)OCCO1 (configuration not stated),87 to 89
15,CC1(C)CCc2c(N)c(Cl)cc(C(=O)O)c2O1,165
16,O=C(Nc1cccc(Cl)c1)c1c(C(F)(F)F)nc2c(C(F)(F)F)cccc2c1O,152
17,CC(C)c1c(C(=O)Nc2ccccc2)c(-c2ccccc2)c(-c2ccc(F)cc2)n1CC[C@@H]1C[C@H](CC(=O)OC(C)(C)C)OC(C)(C)O1,140 to 142
18,CC(=O)NCC(=O)c1cccc(Cl)c1Cl,107 to 109
19,N#CC1CCc2cc(C(N)=O)ccc2C1 (configuration not stated),180 to 182
20,CN1CCCC1=C(C#N)C(=O)c1ccc(Cl)cc1,115
21,CCC1(C)Cc2ccc(C)cc2C1=O (configuration not stated),25.5 to 27
22,COC(=O)c1ccc2cc(OCc3cccc(COc4ccc5cc(C(=O)OC)ccc5c4)c3)ccc2c1,177 to 178
23,COc1ccc(C2(CF)CCC(=O)CC2)cc1OC1CCCC1,72 to 74
24,CCOC(=O)c1cccc2c1Cc1c-2[nH]c2ccc(Cl)cc12,202 to 204
25,COc1ccc2cc([C@H](C)C(=O)OCC(=O)N(C)CC(=O)OCCCO[N+](=O)[O-])ccc2c1,41 to 43
26,Cc1cc(COc2cccc3c2CN(C2CCC(=O)NC2=O)C3=O)ccc1Cl (configuration not stated),217 to 219

row,Compound,melting point [°C]
1,Nc1nc(=O)c2ccccc2n1Cc1ccc(F)cc1,170
2,O=C(c1cccc(OC(F)(F)F)c1)N1CCc2cc(S(=O)(=O)N3CC(c4ccccc4)NC3=O)ccc21 (configuration not stated),129 to 131
3,CCOC(=O)C(=O)CC(=O)C=Cc1ccc([N+](=O)[O-])cc1,148 to 154
4,Cn1cc(C2=C(c3c4n(c5ccccc35)CCC(NC(=O)OC(C)(C)C)C4)C(=O)NC2=O)c2ccccc21 (configuration not stated),153 to 155
5,O=c1ccc(-c2cccc(Br)c2)nn1CN1CCOCC1,110 to 111
6,CCCOc1ccccc1-c1nc(O)cc(CC)n1,97 to 98.5
7,O=c1c2cnc(-c3ccccc3)nc2sn1Cc1ccccc1,166 to 167
8,Cc1nnc(-c2ccc3occ(-c4ccccc4C)c3c2)o1,83 to 84
9,CN(C(=O)N[C@@H](Cc1ccc(Nc2nccc3ccncc23)cc1)C(=O)O)c1ccccc1Cc1ccccc1,157
10,CC(=O)NC[C@H]1CN(c2ccc(-n3nccc3-c3ccncc3)c(F)c2)C(=O)O1,74.5 to 76.3
11,CC(C)(C)OC(=O)Nc1cc(N2CCC(OCCO)CC2)c(I)cc1[N+](=O)[O-],64 to 65
12,O=[N+]([O-])c1c(OS(=O)(=O)C(F)(F)F)nc2ccccc2c1OS(=O)(=O)C(F)(F)F,74.5 to 76
13,CC(=O)C(Cc1nsc2ccc(-n3c(=O)cc(C(F)(F)F)n(C)c3=O)cc12)C(=O)O (configuration not stated),191 to 193
14,Cc1noc(NS(=O)(=O)c2sc3ccc(Cl)cc3c2C)c1Br,153 to 155
15,CCc1c(-c2ccc(O)cc2)c2c(COC)cc3cccc1n32,> 130
16,CNC(=O)Nc1cc(C(C)(C)C)c2c(c1)C(C)(C)CO2,193 to 194
17,CCOc1cc(-c2nc3ccccc3[nH]2)n[nH]1,217 to 220
18,CCc1ccc(-c2nc(COc3ccc(CCCn4ccnc4)cc3)co2)s1,57 to 58
19,COc1cc(CNC(=O)c2ccc3n2Cc2ccccc2N(C(=O)CSc2ccc(Br)cc2)C3)ccc1O,168
20,CCOc1cc(C)cc(C)c1C,93 to 95
21,COc1ccccc1CNc1ccc2cc(Nc3ncccc3C)ccc2n1,163
22,CN(Cc1cnn(C)c1)c1ccc(Br)cc1C=O,80 to 81
23,N#Cc1nc(Cl)c(-c2cccc(Cl)c2)nc1C#N,87 to 88
24,O=S(=O)(NCC1CCN(C[C@H]2COc3ccc(Cl)cc3O2)CC1)c1ccc(F)cc1,127 to 129

# Reference: a melting point compilation (Tetko et al.; mined from patent text by program, amines drawn as free bases though some values may be those of a salt)
